Experimental data published in patent US20130102650A1, “ANTIMICROBIAL COMPOUNDS OF 1,4-NAPHTOQUINONE STRUCTURE” (priority 2010, published 2013).
≈ marks a conversion by molar mass, not a printed value. Read-outs that look alike come from different tables or passages of the source.

Tests used:
E. coli MG1655 = assay: Growth of wild type, thyA-carrying E. coli
ThyX [1] = biological target: T1, ThyX (Paramecium bursaria Chlorella virus 1, UniProt O41156); conditions: varying dUMP concentrations
ThyX [2] = biological target: T1, ThyX; assay: biochemical
[3] = system: E. coli FE010 (ΔthyA::thyX); conditions: 1.5 μg/ml (≈5 μM), thymidine-deprived medium
[4] = system: Helicobacter pylori 26695; assay: MIC by broth microdilution / disc diffusion test; format: cell-based
Procedure: Helicobacter pylori strain 26695 and SS1 were grown on either blood agar base two (Oxoid) plates supplemented with 10% defibrinated horse blood (Oxoid) or in liquid culture in brain-heart infusion broth (Oxoid) supplemented with 10% FBS (Gibco BRL). An antibiotics-fungicide mix consisting of vancomycin (final concentration 10 μg/ml), polymyxin B (2.5 units per liter), trimethoprim (5 μg/ml), and fungizone (2.5 μg/ml) was added. Plates were incubated at 37° C. under microaerobic atmosphere in jars using the […] gas generating system (Oxoid). Liquid cultures were shaken at 175 rpm. Minimal inhibitory concentrations (MICS) were determined using a broth microdilution test in 24 well microtiter plates. […] The MIC was determined as the lowest compound concentration resulting in complete growth inhibition after 24 h of incubation. All the tests were done in triplicates and they included no cells and DMSO-only controls. […] For disc diffusion test an overnight culture of H. pylori strain 26695 was diluted to OD600≈0.01 and spread on agar plates by inundation. 10 μg of each compound were deposited onto diffusion discs and plates were incubated under microaerophilic conditions for 72 h. The diameters of each inhibition zone were measured (disk surface and a DMSO inhibition zone were subtracted). All experiments were done in triplicate, including a DMSO-only control on each plate. MIC determination by broth microdilution was not possible for M. smegmatis mc2 155 due to build up of cell aggregates in liquid cultures. The susceptibility of M. smegmatis mc2 155 towards selected compounds was thus tested using disc diffusion test on LB-agar plates as described above. The inhibition diameters were read after 48 h of incubation at 37° C.

PBCV-1 ThyX [5] = biological target: T2, PBCV-1 ThyX (Paramecium bursaria Chlorella virus 1, UniProt O41156); assay: NADPH oxidation assay, screen and IC50 by dose-response curves
Procedure: The NADPH oxidation assay for PBCV-1 ThyX activity (Graziani, S., Xia, Y., Gurnon, J. R., Van Etten, J. L., Leduc, D., Skouloubris, S., Myllykallio, H., and Liebl, U. (2004) Functional analysis of FAD-dependent thymidylate synthase ThyX from Paramecium bursaria Chlorella virus-1. J. Biol. Chem. 279, 54340-54347) was adapted for a medium throughput inhibitor screen (MTS) in 96-well plates. A typical assay with a final volume of 200 μl, contained 200 μM NADPH, 2 μM CH2H4folate, 5 μM dUMP, 1 mM MgCl2, 1% glycerol, 62.5 μM FAD and 400 nM PBCV-1 ThyX. 1982 compounds from the National Cancer Institute diversity set 1 and 340 natural compounds, selected for their diversity and drug-likeness (GreenPharma) (all in DMSO) were added to a final concentration of 20 μM for the initial screen. The microplates were prepared by a liquid handling robotic workstation (Xiril X75), and manually transferred to the automated microplate reader Chameleon II (Hidex). The reactions were started by automatically injecting NADPH into individual wells and the decrease in absorbance at 340 nm was followed at 37° C. for 5 min. Samples with added DMSO and no enzyme were used as positive and negative controls, respectively. For NADPH oxidation at 340 nm a molar extinction coefficient of 6220 M^−1 cm^−1 was used. For this assay a Z′-factor value of 0.62 was calculated, is indicating robustness of the measurement and an acceptable dynamic range of the signal (Zhang, J. H., Chung, T. D., and Oldenburg, K. R. (1999) J. Biomol. Screen. 4, 67-73). Primary hits were defined as compounds that inhibited 75% of ThyX activity at the initial screening concentration.
Compounds that inhibited PBCV-1 ThyX at 20 μM concentration in the NADPH oxidation assay were selected as hits. For each hit IC50 values were determined by fitting the data from three independent experiments to the equation for a dose-response sigmoid curve using GraphPad Prism 4 Software (GraphPad Software Inc.).
All tests were performed in triplicates in 96 well microtiter plates. A typical assay (200 μL) contained 200 μM NADPH, 2 μM dUMP, 1 mM MgCl2, 1% glycerol, 10 μM FAD, 200 nM of PBCV-1 ThyX and different concentrations of inhibitors ranging from 0.1 μM to 40 μM. The reactions were started by injection of NADPH and the absorbance at 340 nm was followed for 3 min at 37° C. […] A molar extinction coefficient for NADPH oxidation at 340 nm of 6220 M^−1 cm^−1 was used for quantification of absorption changes. The optical path length was 0.5 cm. The obtained Vi/V0 values were plotted for each inhibitor concentration and fitted to sigmoidal dose-response curves using GraphPad Prism 4 Software.

PBCV-1 ThyX [6] = biological target: T2, PBCV-1 ThyX; assay: Deprotonation (tritium release) assay of ThyX activity; format: biochemical, Paramecium bursaria chlorella virus (PBCV-1); conditions: read-out: % inhibition (deprotonation) PBCV-1 ThyX
[7] = system: Mycobacterium smegmatis mc2 155; assay: Disc diffusion test on LB-agar plates; format: cell-based
Procedure: Liquid cultures were shaken at 175 rpm. Minimal inhibitory concentrations (MICS) were determined using a broth microdilution test in 24 well microtiter plates. […] The MIC was determined as the lowest compound concentration resulting in complete growth inhibition after 24 h of incubation. All the tests were done in triplicates and they included no cells and DMSO-only controls. […] For disc diffusion test an overnight culture of H. pylori strain 26695 was diluted to OD600≈0.01 and spread on agar plates by inundation. 10 μg of each compound were deposited onto diffusion discs and plates were incubated under microaerophilic conditions for 72 h. The diameters of each inhibition zone were measured (disk surface and a DMSO inhibition zone were subtracted). All experiments were done in triplicate, including a DMSO-only control on each plate. MIC determination by broth microdilution was not possible for M. smegmatis mc2 155 due to build up of cell aggregates in liquid cultures. The susceptibility of M. smegmatis mc2 155 towards selected compounds was thus tested using disc diffusion test on LB-agar plates as described above. The inhibition diameters were read after 48 h of incubation at 37° C.

[8] = system: human lymphoblastoid TK6 cells; assay: GreenScreen HC genotoxicity and cytotoxicity assay
Procedure: Two strains of cultured human lymphoblastoid TK6 cells were used, the test strain (GenM-T01) and the non-fluorescent control strain (GenM-001), the latter was used to allow correction for any autofluorescence from the test. The plates were analyzed at 24 hour and 48 hour time points using a microplate reader, that allows measurements of light absorbance and fluorescence for cells and solutions in the microplate wells. Absorbance is proportional to cell proliferation, which is lowered by toxic analytes, and fluorescence is proportional to the activity of the cell's DNA repair system, which is increased by genotoxic analytes. […] The GreenScreen HC +S9 protocol uses the same cultured TK6 cell strains (GenM-001 and GenMT01). […] (5% CO2, 95% humidity) for 3 hours. After a recovery period of 45 hours the GFP fluorescence signal and cell viability (assessed by propidium iodide uptake) were measured.

[9] = Helicobacter pylori, H. pylori 26695, broth microdilution 24 h or derived from disc diffusion standard curve, read-out: MIC

T1 sequence (O41156 whole entry): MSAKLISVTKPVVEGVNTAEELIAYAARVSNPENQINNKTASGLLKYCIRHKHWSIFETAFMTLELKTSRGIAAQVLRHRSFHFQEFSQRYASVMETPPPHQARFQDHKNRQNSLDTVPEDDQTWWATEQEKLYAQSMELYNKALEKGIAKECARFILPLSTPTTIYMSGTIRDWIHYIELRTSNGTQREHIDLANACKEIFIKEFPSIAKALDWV
T2 sequence (O41156 whole entry): as above

| Compound | MIC [4, 9] [µg/mL] | IC50 (PBCV-1 ThyX [5]) [µM] | inhibition at 20 µM (PBCV-1 ThyX [6]) [%] | also measured |
| --- | --- | --- | --- | --- |
| O=C1C=C(Br)C(=O)c2c(O)cccc21 [Compound 2E04, 2-bromo-8-hydroxy-1,4-naphthoquinone] |  |  |  | bactericidal activity on isogenic wild type strain (E. coli MG1655): not observed; effect on apparent Km of the enzyme for dUMP (ThyX [1]): increased the apparent Km value; Ki (ThyX [2]): 1.5 µM; growth inhibition of E. coli FE010 (ΔthyA::thyX) [3]: reproducibly inhibited |
| COc1ccc(C2=C(O)C(=O)c3ccccc3C2=O)cc1 [Compound A3-C2] | 4.7 (≈ 16.8 µM) | 8 |  |  |
| Cc1ccc(C2=C(O)C(=O)c3ccccc3C2=O)cc1 [Compound A4-C2] | 4.7 (≈ 17.8 µM) | 9 |  |  |
| O=C1C(O)=C(Cc2ccccc2)C(=O)c2ccccc21 [Compound A4-S] | 1.4 (≈ 5.3 µM) | 1.4 |  |  |
| O=C1C(O)=C(c2ccc3ccccc3c2)C(=O)c2ccccc21 [Compound A7-S] | 6 (≈ 20 µM) | 1.2 |  |  |
| O=C(O)c1ccccc1NC1=CC(=O)c2c(O)cccc2C1=O [Compound B3-C1, 2-(5-hydroxy-1,4-dioxo-1,4-dihydro-naphthalen-2-ylamino)benzoic acid] |  |  | 12 ± 6 |  |
| COc1ccc(CC2=C(O)C(=O)c3ccccc3C2=O)cc1 [Compound C8-C1, 2-hydroxy-3-(4-methoxybenzyl)-1,4-naphthoquinone] | 2.5 to 5 (≈ 8.49 to 17 µM) | 5 | 78 ± 4 | growth inhibition / antimicrobial activity against Mycobacterium smegmatis mc2155 [7]: inhibited the growth; effect on apparent Km of the enzyme for dUMP (ThyX [1]): increased the apparent Km value; growth inhibition / antimicrobial activity against Helicobacter pylori 26695 [4]: inhibited the growth; MIC ([4]; Helicobacter pylori, 26695, disc diffusion tests and liquid cultures, read-out: minimal inhibitory concentration (MIC)): ~2.5 µg/mL (≈ 8.49 µM); Ki (ThyX [2]): 0.25 µM; genotoxicity ([8]; GreenScreen HC): non-genotoxic; cytotoxic activity in metabolic activation tests ([8]; S9 fraction, 10 μg/ml): further decreased; cytotoxic activity ([8]; without metabolic activation): low cytotoxic activity |
| O=C1C(O)=C(c2ccc(Br)cc2)C(=O)c2ccccc21 [Compound C8-S] |  | 1.2 |  | MIC ([4]; Helicobacter pylori, 26695, 24 h): 7 µg/mL (≈ 21.3 µM) |
| O=C(CC1=C(O)C(=O)c2ccccc2C1=O)c1ccccc1 [Compound E11-C1, 2-hydroxy-3-(2-oxo-2-phenylethyl)-1,4-naphthoquinone] |  |  | 36 ± 5 |  |
| Cc1ccc(C(=O)CC2=C(O)C(=O)c3ccccc3C2=O)cc1 [Compound F3-C1, 2-hydroxy-3-(2-oxo-2-p-tolylethyl)-1,4-naphthoquinone] |  |  | 38 ± 7 |  |
| O=C1C(O)=C(c2ccc(-c3ccccc3)cc2)C(=O)c2ccccc21 [Compound F6-C1, 2-(biphenyl-4-yl)-3-hydroxy-1,4-naphthoquinone] | 10 (≈ 30.6 µM) | 0.2 | 95 ± 3 |  |
| COc1ccc(C(=O)CC2=C(O)C(=O)c3ccccc3C2=O)cc1 [Compound G3-C1, 2-hydroxy-3-(2-(4-methoxyphenyl)-2-oxoethyl)-1,4-naphthoquinone] | 10 (≈ 31 µM) | 13 | 22 ± 7 |  |
| O=C(CC1=C(O)C(=O)c2ccccc2C1=O)c1cccs1 [Compound H3-C1, 2-hydroxy-3-(2-oxo-2-(thiophen-2-yl)ethyl)-1,4-naphthoquinone] | 10 (≈ 33.5 µM) | 8 | 38 ± 3 |  |
| O=C1C(O)=C([C@H]2CC[C@H](c3ccc(Cl)cc3)CC2)C(=O)c2ccccc21 [atovaquone, reference compound] |  |  |  | effect on apparent Km of the enzyme for dUMP (ThyX [1]): increased the apparent Km value; Ki (ThyX [2]): 5 µM |
